Measurements published in patent US8916540B2, “Antibiotic compositions and related screening methods” (Academia Sinica, priority 2008, dated 2014).

Columns and labels:
[1] = molecular target: T1, E. coli PBP1b TG+TP (residues 88-844) (Escherichia coli, UniProt P02919); assay: SPR moenomycin binding to truncated PBP1b variant; conditions: PBP without the transmembrane domain
T1 construct: TG+TP (residues 88-844); His tag (implied by nickel chelation chromatography); made in house; host or cells: E. coli (pET vectors)
T1 sequence (P02919 88-844): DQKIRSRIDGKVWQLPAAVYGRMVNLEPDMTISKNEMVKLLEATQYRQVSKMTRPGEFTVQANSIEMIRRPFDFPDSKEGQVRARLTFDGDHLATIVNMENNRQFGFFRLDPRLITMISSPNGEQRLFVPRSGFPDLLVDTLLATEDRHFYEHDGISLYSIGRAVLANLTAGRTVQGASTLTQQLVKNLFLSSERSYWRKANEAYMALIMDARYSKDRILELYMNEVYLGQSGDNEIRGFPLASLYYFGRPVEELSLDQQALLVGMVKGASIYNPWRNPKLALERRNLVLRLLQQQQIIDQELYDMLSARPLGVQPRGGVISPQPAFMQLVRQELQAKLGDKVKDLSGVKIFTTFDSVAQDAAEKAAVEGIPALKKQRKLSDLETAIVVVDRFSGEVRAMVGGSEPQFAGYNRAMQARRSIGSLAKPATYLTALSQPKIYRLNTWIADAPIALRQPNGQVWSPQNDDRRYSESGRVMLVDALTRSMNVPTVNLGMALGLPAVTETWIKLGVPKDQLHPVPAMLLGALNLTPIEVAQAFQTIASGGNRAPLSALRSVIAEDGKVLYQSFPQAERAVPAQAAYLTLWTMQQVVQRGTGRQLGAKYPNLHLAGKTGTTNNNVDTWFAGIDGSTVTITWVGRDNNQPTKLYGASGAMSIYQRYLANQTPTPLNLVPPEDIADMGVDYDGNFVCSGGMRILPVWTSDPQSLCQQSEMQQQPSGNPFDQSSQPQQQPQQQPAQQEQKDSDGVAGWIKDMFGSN
Excerpt: . Five E. coli PBP1b variants were expressed and purified: 1) full-length protein containing transmembrane, transglycosylase and transpeptidase domains (TM+TG+TP), 2) TG+TP, 3) TM+TG, 4) TG, and 5) TP (FIG. 1B).
. FIG. 1(B) is a schematic representation of the PBP variants used for moenomycin binding studies. The full-length PBP (TM+TG+TP) contains amino acid residues 1-844 of the E. coli PBP1b P02919. TG+TP (residues 88-844), TM+TG (residues 1-409), TG (residues 195-409), and TP (residues 444-736) are truncated variants with the part of the full-length PBP1b. The moenomycin binding constant (KD) for these variants were determined using SPR.
After immobilization of the target proteins on the sensor chip, different concentrations of moenomycin were passed through the surface and the binding affinities were determined. […].
Purified PBP and its variants were immobilized onto CM3 chip (GE healthcare, Uppsala, Sweden) to about 1,500˜2,000 RU via amine-coupling method. […]. Immobilization and data collection were performed with BIAcore T100 (GE Healthcare, Uppsala, Sweden) at 25° C.

Escherichia coli = assay: Minimal inhibitory concentration (MIC) determination; assay type: cell-based
Citrobacter freundii = conditions: literature citation 28; cited from earlier work
Shigella flexneri = assay: Minimal inhibitory concentration (MIC) determination; assay type: cell-based
Enterococcus faecalis = conditions: literature citation 31; cited from earlier work

Which “moenomycin binding activity of TG+TP variant relative to full-length PBP1b (fold lower)” value [1] does the source give for Moenomycin A [Compound 1] here?
The value was “about 5 fold”.

What about the “moenomycin binding activity of TG+TP variant relative to full-length PBP1b (fold lower)” value ([1]; listed as Moe A) of the same substance?
The value was “decreased five-fold”.

And the MIC (Escherichia coli)?
The MIC was 80 µM.

And the “Reported values MIC” value (Citrobacter freundii)?
The value was 352 µM.

What about the MIC (Shigella flexneri) of the same substance?
Its MIC is 40 µM.

And the “Reported values MIC” value (Enterococcus faecalis)?
The value was 0.1 µM.
